Patent US7074789B2, “Kinase inhibitors” (Amgen Inc., priority 1999, dated 2006)

Columns and labels:
Assay type in all cases: biochemical
[1] = target: T1, Kdr (Homo sapiens, UniProt P35968); test: Kinase inhibition assay (33P transfer), Kdr; details: Table 3; read-out: KDR-1
T1 construct: Kinases are expressed as either kinase domains or full length constructs; made in house
Procedure, shortened: (§1)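 GST/His-tagged kinase (domain or full length; E. coli or baculovirus) + [33P]ATP on plates coated with poly(Glu,Tyr) 4:1 or poly(Arg,Ser) 3:1; incubate, wash 0.5% H3PO4, add scintillant, count.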

[2] = target: T2, AKT (Homo sapiens, UniProt Q9Y243); test: Kinase inhibition assay (33P transfer), AKT; details: Table 2, kinase inhibition class; read-out: AKT3-1
T2 construct: Kinases are expressed as either kinase domains or full length constructs; made in house
T2 sequence (Q9Y243 whole entry, the tested form may be a part): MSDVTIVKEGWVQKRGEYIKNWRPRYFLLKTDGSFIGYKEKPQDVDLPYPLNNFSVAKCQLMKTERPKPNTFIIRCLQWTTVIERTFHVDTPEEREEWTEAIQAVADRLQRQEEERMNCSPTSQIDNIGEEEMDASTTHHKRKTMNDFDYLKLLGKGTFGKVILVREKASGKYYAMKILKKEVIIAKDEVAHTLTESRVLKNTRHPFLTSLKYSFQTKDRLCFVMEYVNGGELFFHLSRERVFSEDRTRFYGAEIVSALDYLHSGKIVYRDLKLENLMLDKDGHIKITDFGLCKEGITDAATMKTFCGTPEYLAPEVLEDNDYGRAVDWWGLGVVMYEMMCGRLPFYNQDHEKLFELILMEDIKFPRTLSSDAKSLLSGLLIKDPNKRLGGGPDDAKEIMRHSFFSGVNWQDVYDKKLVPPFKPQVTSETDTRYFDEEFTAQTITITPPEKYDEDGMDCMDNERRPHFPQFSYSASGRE
Procedure, shortened: as §1

[3] = target: T3, Lyn (Homo sapiens, UniProt P07948); test: Kinase inhibition assay (33P transfer), Lyn; details: Table 6, Lyn-1 kinase inhibition class
T3 construct: Kinases are expressed as either kinase domains or full length constructs; made in house
Procedure, shortened: (§2)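 Using immobilised substrate copolymers (poly(Glu,Tyr) 4:1; poly(Arg,Ser) 3:1) and [33P]ATP, purified fusion kinases were allowed to react; plates were then rinsed in 0.5% phosphoric acid and counted in a scintillation detector. Half-maximal inhibition of label transfer defines IC50.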

[4] = target: T4, Hck-1 (Homo sapiens, UniProt P08631); test: Kinase inhibition assay (33P transfer), Hck; details: Table 6, Hck-1 kinase inhibition class
T4 construct: Kinases are expressed as either kinase domains or full length constructs; made in house
T4 sequence (P08631 whole entry, the tested form may be a part): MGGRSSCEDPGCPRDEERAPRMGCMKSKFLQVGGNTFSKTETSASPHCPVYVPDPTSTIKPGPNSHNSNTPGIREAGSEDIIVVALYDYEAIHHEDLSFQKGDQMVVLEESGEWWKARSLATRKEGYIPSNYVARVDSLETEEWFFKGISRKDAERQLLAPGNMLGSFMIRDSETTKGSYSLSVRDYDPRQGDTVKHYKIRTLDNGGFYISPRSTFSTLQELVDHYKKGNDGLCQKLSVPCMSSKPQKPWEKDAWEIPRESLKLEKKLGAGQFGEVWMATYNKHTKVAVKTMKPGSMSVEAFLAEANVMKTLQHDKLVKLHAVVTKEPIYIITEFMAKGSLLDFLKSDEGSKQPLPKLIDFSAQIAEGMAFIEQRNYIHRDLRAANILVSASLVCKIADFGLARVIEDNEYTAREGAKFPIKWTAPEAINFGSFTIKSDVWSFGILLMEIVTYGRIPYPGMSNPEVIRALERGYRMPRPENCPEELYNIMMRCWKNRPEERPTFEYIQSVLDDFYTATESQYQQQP

[5] = target: T5, EGFR (Homo sapiens, UniProt P00533); test: Kinase inhibition assay (33P transfer), EGFR; details: Table 2, kinase inhibition class; read-out: EGFR-1
T5 construct: Kinases are expressed as either kinase domains or full length constructs; made in house
Procedure, shortened: as §2

[6] = target: T6, Ret-1 (Homo sapiens, UniProt P07949); test: Kinase inhibition assay (33P transfer), Ret; details: Table 6, Ret-1 kinase inhibition class
T6 construct: Kinases are expressed as either kinase domains or full length constructs; made in house
T6 sequence (P07949 29-1114): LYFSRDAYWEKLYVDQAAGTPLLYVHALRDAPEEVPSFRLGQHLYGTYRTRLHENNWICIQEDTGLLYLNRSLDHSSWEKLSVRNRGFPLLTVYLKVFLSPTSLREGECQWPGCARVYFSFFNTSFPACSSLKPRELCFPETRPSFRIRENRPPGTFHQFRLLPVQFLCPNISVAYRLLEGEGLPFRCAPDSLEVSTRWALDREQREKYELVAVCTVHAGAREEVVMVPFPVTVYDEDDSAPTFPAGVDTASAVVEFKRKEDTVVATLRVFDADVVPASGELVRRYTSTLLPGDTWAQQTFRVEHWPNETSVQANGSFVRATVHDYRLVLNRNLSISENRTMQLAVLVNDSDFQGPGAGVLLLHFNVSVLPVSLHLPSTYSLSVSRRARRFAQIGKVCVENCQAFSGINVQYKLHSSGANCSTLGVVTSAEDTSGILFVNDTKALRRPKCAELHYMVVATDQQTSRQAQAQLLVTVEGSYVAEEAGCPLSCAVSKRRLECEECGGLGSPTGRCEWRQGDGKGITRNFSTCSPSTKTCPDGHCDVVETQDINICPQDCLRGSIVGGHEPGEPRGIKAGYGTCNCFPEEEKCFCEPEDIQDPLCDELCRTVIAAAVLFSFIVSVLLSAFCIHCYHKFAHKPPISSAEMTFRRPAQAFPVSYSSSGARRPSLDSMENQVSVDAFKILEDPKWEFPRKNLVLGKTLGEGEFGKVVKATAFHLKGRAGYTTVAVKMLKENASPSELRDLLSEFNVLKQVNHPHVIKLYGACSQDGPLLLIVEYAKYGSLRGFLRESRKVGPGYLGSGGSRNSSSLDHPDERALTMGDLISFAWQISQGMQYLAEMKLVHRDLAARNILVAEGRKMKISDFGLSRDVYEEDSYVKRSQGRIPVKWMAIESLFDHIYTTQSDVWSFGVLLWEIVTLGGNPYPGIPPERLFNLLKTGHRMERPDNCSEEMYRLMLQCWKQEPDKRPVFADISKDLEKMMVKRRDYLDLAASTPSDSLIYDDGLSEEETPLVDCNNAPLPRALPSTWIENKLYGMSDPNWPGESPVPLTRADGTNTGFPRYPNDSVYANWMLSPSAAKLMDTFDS

[7] = target: T7, Fyn (Homo sapiens, UniProt P06241); test: Kinase inhibition assay (33P transfer), Fyn; details: read-out: Fyn-1
T7 construct: Kinases are expressed as either kinase domains or full length constructs; made in house
T7 sequence (P06241 whole entry, species assumed, the tested form may be a part): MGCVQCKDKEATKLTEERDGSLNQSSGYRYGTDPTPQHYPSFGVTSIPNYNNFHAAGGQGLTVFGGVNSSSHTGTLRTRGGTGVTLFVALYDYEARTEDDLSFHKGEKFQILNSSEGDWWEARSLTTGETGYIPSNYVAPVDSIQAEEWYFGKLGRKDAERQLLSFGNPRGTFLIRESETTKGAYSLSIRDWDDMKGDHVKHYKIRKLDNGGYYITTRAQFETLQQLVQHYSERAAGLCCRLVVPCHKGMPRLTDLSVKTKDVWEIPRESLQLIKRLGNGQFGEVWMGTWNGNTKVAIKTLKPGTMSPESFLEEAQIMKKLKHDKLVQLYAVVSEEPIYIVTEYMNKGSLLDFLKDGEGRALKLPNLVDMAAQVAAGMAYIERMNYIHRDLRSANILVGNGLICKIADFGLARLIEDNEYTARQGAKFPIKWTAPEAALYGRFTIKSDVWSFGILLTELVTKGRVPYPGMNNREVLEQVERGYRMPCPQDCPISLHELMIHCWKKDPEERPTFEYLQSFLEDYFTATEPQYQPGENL
Procedure, shortened: as §2

[8] = target: T8, Lck (Homo sapiens, UniProt P06239); test: Kinase inhibition assay (33P transfer), Lck; details: Table 3; read-out: Lck-1
T8 construct: Kinases are expressed as either kinase domains or full length constructs; made in house
T8 sequence (P06239 whole entry, species assumed, the tested form may be a part): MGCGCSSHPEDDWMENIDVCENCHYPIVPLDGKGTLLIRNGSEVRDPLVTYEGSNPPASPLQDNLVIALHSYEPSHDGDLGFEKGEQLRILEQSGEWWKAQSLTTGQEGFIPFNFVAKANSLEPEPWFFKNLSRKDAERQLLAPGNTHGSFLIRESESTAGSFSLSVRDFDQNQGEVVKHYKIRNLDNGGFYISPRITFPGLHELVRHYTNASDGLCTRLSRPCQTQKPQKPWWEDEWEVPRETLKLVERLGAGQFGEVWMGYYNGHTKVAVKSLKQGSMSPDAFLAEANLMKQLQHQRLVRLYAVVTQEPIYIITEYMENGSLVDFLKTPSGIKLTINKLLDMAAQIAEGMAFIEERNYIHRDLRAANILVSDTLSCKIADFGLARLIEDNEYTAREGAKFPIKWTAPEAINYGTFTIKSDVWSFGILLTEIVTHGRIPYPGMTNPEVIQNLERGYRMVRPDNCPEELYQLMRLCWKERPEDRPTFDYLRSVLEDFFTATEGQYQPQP
Procedure, shortened: as §1

[9] = target: T9, Zap-70 (Homo sapiens, UniProt P43403); test: Kinase inhibition assay (33P transfer), Zap-70; details: Table 3; read-out: Zap-1
T9 construct: Kinases are expressed as either kinase domains or full length constructs; made in house
T9 sequence (P43403 1-619): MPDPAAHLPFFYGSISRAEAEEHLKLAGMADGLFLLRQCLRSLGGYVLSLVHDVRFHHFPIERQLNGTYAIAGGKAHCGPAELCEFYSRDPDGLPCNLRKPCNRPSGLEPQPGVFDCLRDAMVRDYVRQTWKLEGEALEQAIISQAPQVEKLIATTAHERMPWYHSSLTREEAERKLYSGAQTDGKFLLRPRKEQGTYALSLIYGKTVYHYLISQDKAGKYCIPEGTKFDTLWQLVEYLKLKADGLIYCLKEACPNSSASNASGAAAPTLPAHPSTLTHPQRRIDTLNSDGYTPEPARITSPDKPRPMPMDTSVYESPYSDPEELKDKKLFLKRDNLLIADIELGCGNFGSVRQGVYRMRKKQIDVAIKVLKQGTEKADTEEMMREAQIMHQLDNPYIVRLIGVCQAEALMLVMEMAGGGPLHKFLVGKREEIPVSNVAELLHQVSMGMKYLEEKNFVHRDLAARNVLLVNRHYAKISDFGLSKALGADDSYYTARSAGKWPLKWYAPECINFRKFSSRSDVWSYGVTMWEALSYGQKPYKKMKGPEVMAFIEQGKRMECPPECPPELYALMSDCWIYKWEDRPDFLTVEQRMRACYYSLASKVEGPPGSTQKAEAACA
Procedure, shortened: as §1

[10] = target: T10, Src (Homo sapiens, UniProt P12931); test: Kinase inhibition assay (33P transfer), Src; details: Table 6, Src-1 kinase inhibition class
T10 construct: Kinases are expressed as either kinase domains or full length constructs; made in house
T10 sequence (P12931 whole entry, species assumed, the tested form may be a part): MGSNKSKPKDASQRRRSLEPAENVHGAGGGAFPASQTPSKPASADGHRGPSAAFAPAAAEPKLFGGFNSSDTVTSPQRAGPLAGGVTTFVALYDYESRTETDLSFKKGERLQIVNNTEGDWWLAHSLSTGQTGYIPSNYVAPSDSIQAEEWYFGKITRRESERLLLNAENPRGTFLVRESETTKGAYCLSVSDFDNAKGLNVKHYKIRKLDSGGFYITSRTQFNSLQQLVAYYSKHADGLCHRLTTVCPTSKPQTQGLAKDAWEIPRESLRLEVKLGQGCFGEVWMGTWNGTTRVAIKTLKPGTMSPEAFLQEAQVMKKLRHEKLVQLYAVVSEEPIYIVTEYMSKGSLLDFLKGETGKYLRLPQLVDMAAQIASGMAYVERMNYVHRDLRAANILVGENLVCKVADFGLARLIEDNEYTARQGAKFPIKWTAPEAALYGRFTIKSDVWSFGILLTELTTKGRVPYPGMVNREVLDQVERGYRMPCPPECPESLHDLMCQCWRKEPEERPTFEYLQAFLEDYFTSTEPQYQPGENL
Procedure, shortened: as §2

T1 sequence (P35968 20-1356, species assumed): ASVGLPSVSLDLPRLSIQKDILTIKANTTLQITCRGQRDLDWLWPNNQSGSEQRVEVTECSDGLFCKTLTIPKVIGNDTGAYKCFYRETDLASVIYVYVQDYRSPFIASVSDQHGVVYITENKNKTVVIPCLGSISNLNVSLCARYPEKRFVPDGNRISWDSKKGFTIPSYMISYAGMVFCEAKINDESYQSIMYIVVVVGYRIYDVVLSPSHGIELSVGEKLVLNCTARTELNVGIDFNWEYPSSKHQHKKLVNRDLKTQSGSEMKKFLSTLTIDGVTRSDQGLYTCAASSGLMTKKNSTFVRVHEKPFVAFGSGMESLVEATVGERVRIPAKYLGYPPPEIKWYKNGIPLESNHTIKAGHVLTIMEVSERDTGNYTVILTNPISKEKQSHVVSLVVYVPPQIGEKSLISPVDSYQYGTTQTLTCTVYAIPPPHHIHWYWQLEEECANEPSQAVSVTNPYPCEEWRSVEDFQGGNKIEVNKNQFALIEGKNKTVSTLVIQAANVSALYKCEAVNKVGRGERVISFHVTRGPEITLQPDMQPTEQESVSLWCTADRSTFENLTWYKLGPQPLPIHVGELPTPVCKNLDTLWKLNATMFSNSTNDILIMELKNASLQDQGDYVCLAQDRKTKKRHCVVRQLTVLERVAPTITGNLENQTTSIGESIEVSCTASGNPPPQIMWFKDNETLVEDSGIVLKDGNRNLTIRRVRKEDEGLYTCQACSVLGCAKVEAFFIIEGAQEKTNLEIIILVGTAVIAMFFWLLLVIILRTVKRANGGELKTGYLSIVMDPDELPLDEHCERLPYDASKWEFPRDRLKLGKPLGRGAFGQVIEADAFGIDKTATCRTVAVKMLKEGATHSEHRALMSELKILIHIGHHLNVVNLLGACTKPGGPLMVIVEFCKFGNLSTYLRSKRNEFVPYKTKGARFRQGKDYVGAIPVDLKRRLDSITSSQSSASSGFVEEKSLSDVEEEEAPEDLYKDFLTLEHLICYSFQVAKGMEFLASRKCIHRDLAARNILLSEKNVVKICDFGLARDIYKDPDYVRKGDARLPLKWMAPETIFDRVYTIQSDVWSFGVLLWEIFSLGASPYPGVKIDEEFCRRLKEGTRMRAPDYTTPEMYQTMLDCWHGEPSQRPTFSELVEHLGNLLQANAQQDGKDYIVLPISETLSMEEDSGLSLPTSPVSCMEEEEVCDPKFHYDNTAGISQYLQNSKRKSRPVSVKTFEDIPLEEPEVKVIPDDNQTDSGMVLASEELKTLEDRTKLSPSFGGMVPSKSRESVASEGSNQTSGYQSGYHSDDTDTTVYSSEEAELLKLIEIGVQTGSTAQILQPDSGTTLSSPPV

Structure (SMILES)	IC50 [1]	IC50 [2]	IC50 [3]	IC50 [4]	IC50 [5]	IC50 [6]	IC50 [7]	IC50 [8]	IC50 [9]	IC50 [10]
COc1ccc(Nc2ncnc(Nc3cc(OC)c(OC)c(OC)c3)n2)cc1OC [Compound 36]	< 0.968 µM	> 10.9 µM	> 10.9 µM	> 10.9 µM	8.47 to 10.9 µM	> 10.9 µM	> 10.9 µM	0.968 to 5.81 µM	> 10.9 µM	> 10.9 µM
COc1cc(Nc2ncnc(Nc3nnc(-c4ccccc4)[nH]3)n2)cc(OC)c1OC [Compound 311]	0.951 to 5.71 µM	> 10.7 µM	> 10.7 µM	> 10.7 µM	> 10.7 µM	> 10.7 µM	> 10.7 µM	> 10.7 µM	> 10.7 µM	> 10.7 µM
COc1ccc(Nc2ncnc(Nc3ccc(C)c(O)c3)n2)cc1OC [Compound 119]	< 1.13 µM	> 12.7 µM	1.13 to 6.79 µM	> 12.7 µM	< 1.13 µM	< 1.13 µM	< 1.13 µM	1.13 to 6.79 µM	> 12.7 µM	1.13 to 6.79 µM
COc1cc(Nc2ncnc(Nc3cc(C(C)(C)C)[nH]n3)n2)cc(OC)c1OC [Compound 313]	1 to 6.01 µM	> 11.3 µM	< 1 µM	6.01 to 8.76 µM	1 to 6.01 µM	1 to 6.01 µM	1 to 6.01 µM	1 to 6.01 µM	> 11.3 µM	< 1 µM
COc1cc(Nc2ncnc(Nc3nc4ccccc4n3C)n2)cc(OC)c1OC [Compound 938]	< 0.982 µM	> 11 µM	> 11 µM	> 11 µM	> 11 µM	> 11 µM	> 11 µM	> 11 µM	> 11 µM	> 11 µM
COc1cc(Nc2ncnc(-n3c(Nc4ccccc4)nc4ccccc43)n2)cc(OC)c1OC [Compound 336]	–	> 9.58 µM	0.852 to 5.11 µM	> 9.58 µM	> 9.58 µM	< 0.852 µM	> 9.58 µM	0.852 to 5.11 µM	> 9.58 µM	> 9.58 µM
COc1cc(Nc2ncnc(N(c3ccccc3)c3nc4ccccc4[nH]3)n2)cc(OC)c1OC [Compound 335]	< 0.852 µM	> 9.58 µM	0.852 to 5.11 µM	> 9.58 µM	< 0.852 µM	< 0.852 µM	> 9.58 µM	0.852 to 5.11 µM	> 9.58 µM	5.11 to 7.45 µM

Second part, the compound after the results:

IC50 [1]	IC50 [2]	IC50 [3]	IC50 [4]	IC50 [5]	IC50 [6]	IC50 [7]	IC50 [8]	IC50 [9]	IC50 [10]	Structure (SMILES)
< 1.06 µM	> 11.9 µM	9.25 to 11.9 µM	> 11.9 µM	9.25 to 11.9 µM	> 11.9 µM	> 11.9 µM	1.06 to 6.34 µM	> 11.9 µM	> 11.9 µM	COc1cc(Nc2ncnc(-n3cnc4ccccc43)n2)cc(OC)c1OC [Compound 186]
< 1.01 µM	> 11.3 µM	< 1.01 µM	> 11.3 µM	1.01 to 6.04 µM	> 11.3 µM	1.01 to 6.04 µM	< 1.01 µM	> 11.3 µM	< 1.01 µM	COc1cc(Nc2ncnc(Nc3ccc4c(c3)OCO4)n2)cc(OC)c1OC [Compound 252]
1.16 to 6.95 µM	> 13 µM	–	–	> 13 µM	–	–	10.1 to 13 µM	> 13 µM	–	COc1cc(Nc2ncnc(N3CCCCC3)n2)cc(OC)c1OC [Compound 207]
< 1 µM	> 11.3 µM	< 1 µM	6.01 to 8.76 µM	< 1 µM	> 11.3 µM	1 to 6.01 µM	< 1 µM	> 11.3 µM	1 to 6.01 µM	COc1cc(Nc2ncnc(N3CCCC4CCCCC43)n2)cc(OC)c1OC (stereo not drawn) [Compound 314]
< 1.03 µM	> 11.6 µM	1.03 to 6.16 µM	> 11.6 µM	1.03 to 6.16 µM	1.03 to 6.16 µM	8.99 to 11.6 µM	> 11.6 µM	> 11.6 µM	8.99 to 11.6 µM	COc1cc(Nc2ncnc(Nc3cc(F)ccc3F)n2)cc(OC)c1OC [Compound 316]
